Data from US10072023B2, “Diarylethene compounds and uses thereof” (SWITCH MATERIALS, INC., priority 2011, dated 2018).

Experiments:
Type in all cases: physicochemical
[1] = Solubility in indicated solvent; settings: % wt soluble in triglyme
Text: A compound with greater solubility allows for a formulation or material with a greater concentration of coloured molecule to be incorporated into a composition. This may allow for increasing the contrast ratio for a compound with a lesser absorbance at PSS. Inclusion of a solubilizing group in a compound according to various embodiments of the invention may increase solubility. Examples of solubilizing groups may include alkoxy or siloxy groups.

[2] = Absorbance at photostationary state (PSS) under simulated sunlight or 365 nm light; parameters: λ max: unit not given here; settings: for Absorbance at PSS, 365 nm: 365 nm light source; for Absorbance at PSS, 365 nm / Absorbance at PSS, full / Absorbance at PSS, +UV / λ max: 2.0×10^−5 M in triglyme; for sensitivity index: ratio of PSS under 365 nm light to PSS under full spectrum light (without UV blocking film); for Absorbance at PSS, full: simulated sunlight (QSUN solar simulator), no UV blocking film; for Absorbance at PSS, +UV: simulated sunlight with UV blocking film (cutoff 370 nm); for λ max: wavelength of maximum absorbance in the visible range, ring-closed isoform
In short: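 Compounds at 2.0×10^−5 M in triglyme, photofaded with visible light, then irradiated with simulated sunlight (xenon arc) or 365 nm light until the UV/Vis spectrum stabilized. Also irradiated through a UV-blocking film (370 nm cutoff); sensitivity index is PSS under 365 nm divided by PSS under full spectrum.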

[3] = PSS and light composition (sunlight vs interior lighting); settings: 2×10^−4 M in triglyme
Text: The difference in PSS as a function of light source type was investigated. The light sources included direct sunlight (filtered through window glass) and interior lighting. Irradiance information and spectral profiles of light sources are provided in Table 9 and FIG. 2, respectively. Six compounds (2×10^−4 M solutions of S096, S094, S079, S044, S042 and S035 in triglyme) were investigated and compared for performance on the basis of maximum difference in darkening ability between sunlight and interior lighting conditions. Darkening ability is indicated by the absorbance at λmax in the visible light spectrum for the ring-closed isomer of the chromophore.
Samples were then moved away from the window (300 cm from window, with interior lighting on) to alter the light composition by reducing the sunlight component. […] Finally, samples were again irradiated to the darkest state under sunlight conditions (20 cm from window) and then subjected to interior lighting conditions only (sunlight blocked out with blinds), allowing the samples to fade to a lower PSS specific to these lighting conditions as shown in FIG. 3.
Sample darkening times were less than one minute, while sample photofading times ranged as high as 20 minutes. […]

SMILES	Solubility [1]	Absorbance at PSS, 365 nm [2]	sensitivity index [2]	Absorbance at PSS, full [2]	Absorbance at PSS, +UV [2]	λ max [2]	change in degree of coloration in response to variation in the light source [3]
CCOCCOCCOCCOc1ccc(-c2sc(-c3ccc(C(C)(C)C)s3)cc2C2=C(c3cc(-c4ccc(C(C)(C)C)s4)sc3-c3ccc(OCCOCCOCCOCC)cc3)C(F)(F)C(F)(F)C2(F)F)cc1 [S109, 4,4″-(perfluorocyclopent-1-ene-1,2-diyl)bis(5′-(tert-butyl)-5-(4-(2-(2-(2-ethoxyethoxy)ethoxy)ethoxy)phenyl)-2,2′-bithiophene)]	>25 % wt	0.367	1.24	0.296	0.217	645	
CC(C)(C)c1ccc(-c2sc(-c3ccc(C4(C)OCCO4)cc3)cc2C2=C(c3cc(-c4ccc(C5(C)OCCO5)cc4)sc3-c3ccc(C(C)(C)C)cc3)C(F)(F)C(F)(F)C2(F)F)cc1 [S066, 2,2′-((4,4′-(perfluorocyclopent-1-ene-1,2-diyl)bis(5-(4-(tert-butyl)phenyl)thiophene-4,2-diyl))bis(4,1-phenylene))bis(2-methyl-1,3-dioxolane)]	2.5 % wt	0.226	2.28	0.099	0.049	615	
CC(C)(C)c1ccc(-c2cc(C3=C(c4cc(-c5ccc(C(C)(C)C)cc5)sc4-c4ccc(C(C)(C)C)cc4)C(F)(F)C(F)(F)C3(F)F)c(-c3ccc(C(C)(C)C)cc3)s2)cc1 [S042]	0.5 % wt	0.233	2.40	0.097	0.04	612	greatest change in degree of coloration
COCCC[Si](CCCOC)(CCCOC)c1ccc(-c2sc(-c3ccc(C(C)(C)C)s3)cc2C2=C(c3cc(-c4ccc(C(C)(C)C)s4)sc3-c3ccc([Si](CCCOC)(CCCOC)CCCOC)s3)C(F)(F)C(F)(F)C2(F)F)s1 [S158]	>20 % wt	0.394	1.15	0.342	0.291	650	
CC(C)CCOc1ccc(-c2cc(C3=C(c4cc(-c5ccc(OCCC(C)C)cc5)sc4-c4ccc(OCCC(C)C)cc4)C(F)(F)C(F)(F)C3(F)F)c(-c3ccc(OCCC(C)C)cc3)s2)cc1 [S094, 3,3′-(perfluorocyclopent-1-ene-1,2-diyl)bis(2,5-bis(4-(isopentyloxy)phenyl)thiophene)]		0.311	1.74	0.179	0.103	625	greatest change in degree of coloration
CCCCCCCCc1ccc(-c2oc3ccccc3c2C2=C(c3c(-c4ccc(CCCCCCCC)cc4)oc4ccccc34)C(F)(F)C(F)(F)C2(F)F)cc1 [S079, 1,2-bis(2-(4-n-octylphenyl)-1-benzofuran-3-yl)perfluorocyclopentene]	8-11 % wt	0.17	7.39	0.023	0.008	490	
